Tests used:
NCI-H460 = experiment: Cytotoxicity against human H460 cells assessed as stimulation of topoisomerase 1-mediated DNA cleavage; type: functional, cell-based
DNA topoisomerase 1 = molecular target: T1, DNA topoisomerase 1 (Homo sapiens, UniProt P11387); experiment: Binding affinity to topoisomerase 1
T1 sequence (P11387 whole entry): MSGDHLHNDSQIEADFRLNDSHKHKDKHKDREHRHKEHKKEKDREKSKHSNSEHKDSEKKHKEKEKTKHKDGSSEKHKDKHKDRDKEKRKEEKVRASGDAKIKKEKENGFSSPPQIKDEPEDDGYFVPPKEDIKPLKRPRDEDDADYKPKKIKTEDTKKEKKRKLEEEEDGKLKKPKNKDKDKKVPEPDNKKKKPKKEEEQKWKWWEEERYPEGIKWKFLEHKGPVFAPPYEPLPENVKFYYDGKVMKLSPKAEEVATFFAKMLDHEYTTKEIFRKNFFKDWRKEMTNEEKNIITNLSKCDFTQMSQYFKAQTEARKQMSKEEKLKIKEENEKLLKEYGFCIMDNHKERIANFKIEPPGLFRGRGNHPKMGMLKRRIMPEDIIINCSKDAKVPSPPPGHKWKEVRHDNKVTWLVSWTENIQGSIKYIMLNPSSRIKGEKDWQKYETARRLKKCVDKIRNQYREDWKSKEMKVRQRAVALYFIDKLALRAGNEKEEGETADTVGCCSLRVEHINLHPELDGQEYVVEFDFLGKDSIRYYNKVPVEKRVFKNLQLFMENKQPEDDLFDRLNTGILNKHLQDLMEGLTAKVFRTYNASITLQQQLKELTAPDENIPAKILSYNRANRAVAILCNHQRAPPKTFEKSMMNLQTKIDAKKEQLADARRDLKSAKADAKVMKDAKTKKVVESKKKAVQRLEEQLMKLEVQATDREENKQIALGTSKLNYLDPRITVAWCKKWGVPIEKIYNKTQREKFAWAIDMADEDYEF

Wee1-like protein kinase = Wee1-like protein kinase (Homo sapiens, UniProt P30291); experiment: Binding affinity to weel kinase
Wee1-like protein kinase, sequence (P30291 whole entry): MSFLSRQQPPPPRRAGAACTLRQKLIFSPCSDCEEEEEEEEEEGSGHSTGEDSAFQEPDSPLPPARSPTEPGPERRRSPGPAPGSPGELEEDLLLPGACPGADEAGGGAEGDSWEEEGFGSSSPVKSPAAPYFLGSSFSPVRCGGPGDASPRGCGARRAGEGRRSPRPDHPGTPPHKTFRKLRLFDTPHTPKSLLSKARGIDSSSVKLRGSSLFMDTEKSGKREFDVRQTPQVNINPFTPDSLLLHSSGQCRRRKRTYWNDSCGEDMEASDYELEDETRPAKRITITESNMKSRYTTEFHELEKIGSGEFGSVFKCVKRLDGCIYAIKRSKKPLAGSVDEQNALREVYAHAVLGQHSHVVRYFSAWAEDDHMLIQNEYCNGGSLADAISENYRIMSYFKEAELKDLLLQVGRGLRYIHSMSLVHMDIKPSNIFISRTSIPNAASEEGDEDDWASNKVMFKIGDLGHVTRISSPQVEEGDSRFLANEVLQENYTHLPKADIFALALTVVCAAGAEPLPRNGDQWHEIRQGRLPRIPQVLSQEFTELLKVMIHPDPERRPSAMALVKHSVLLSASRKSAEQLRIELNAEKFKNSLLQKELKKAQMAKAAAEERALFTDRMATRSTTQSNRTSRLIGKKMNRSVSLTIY

Structure (SMILES) | IC50 (NCI-H460) | Kd (DNA topoisomerase 1) | Kd (Wee1-like protein kinase)
CC[C@@]1(O)C(=O)OCc2c1cc1n(c2=O)Cc2c-1nc1ccccc1c2/C=N/c1ccccc1C | 400 nM | 0.296 nM | 
CC[C@@]1(O)C(=O)OCc2c1cc1n(c2=O)Cc2cc3c(CN(C)C)c(O)ccc3nc2-1 [TOPOTECAN] | 1380 nM |  | 
Cc1cc(=O)c2c(O)cc3c(c2o1)C(=O)c1c(O)cc(O)cc1C3=O [TOPOPYRONE C] |  |  | 1.35 nM
CC[C@@]1(O)C(=O)OCc2c1cc1n(c2=O)Cc2c-1nc1ccccc1c2/C=N\OCCCO | 400 nM | 2.65 nM | 

From ChEMBL document CHEMBL1811875, “Inverse virtual screening of antitumor targets: pilot study on a small database of natural bioactive compounds” (J Nat Prod, 2011)
